# Reference: a melting point compilation (Tetko et al.; mined from patent text by program, amines drawn as free bases though some values may be those of a salt)
row,Compound,melting point [°C]
1,COc1cc(OC)c(NC(=O)Nc2ccccc2)cc1O,162 to 164
2,C[C@H]1CCCC(C)(C)[C@@H]1[C@H](O)c1ccc(C#N)c(F)c1,114 to 116
3,NS(=O)(=O)c1cnc(-c2cn(-c3cc(-c4ccc(C(F)(F)F)cc4)cc(C(F)(F)F)n3)cn2)s1,> 250
4,CCOC(=O)c1csc(-c2ccccc2[N+](=O)[O-])n1,82 to 84
5,CCCCCCCC(=O)OCc1ccccc1-c1nc(-c2cccc(OCC)c2)n[nH]1,87 to 89
6,O=C(O)c1cccc(C(c2cc(F)ccc2F)S(=O)(=O)c2ccc(Cl)cc2)n1 (stereo not given),200 to 201
7,CCOc1cc(Br)cc2c1OC(C)(C)C2,55 to 58
8,CCCN(CCC)c1ccc(CCC(=O)O)c2c1CCCN2C(=O)OC(C)(C)C,84 to 86
9,CC(=O)OC1C=C(C)C(=O)CC(C)(C)C1OC(C)=O (stereo not given),68 to 69
10,Nc1[nH]ncc1-c1cccc(N2CCN(CCO)CC2)c1,40 to 48
11,Cc1cc2[nH]c(=O)c3cnccc3n2n1,> 300
12,CS(=O)c1ccc(C2CCCC(=O)N2c2ccc(Cl)cc2)cc1 (stereo not given),142 to 165
13,COC(=O)C1CCSC(C)(C)C(=O)N1 (stereo not given),172 to 174
14,NC(=O)CCc1cc(C(=O)O)cc(S(N)(=O)=O)c1Oc1ccccc1,192 to 196
15,CC(C)(C)C(=O)c1c[nH]c2ncc(-c3cccc(NC4=NCCN4)c3)nc12,228 to 230
16,O=c1oc2cccnc2n1CN1CCN(c2cccc(C(F)(F)F)c2)CC1,112 to 118
17,O=CCC(c1ccccc1)c1cc(Br)ccc1OCc1ccccc1 (stereo not given),99 to 100
18,O[C@@H]1CN=C(c2ccc(Cl)c(Cl)c2)O[C@H]1c1ccccc1 (racemic),158
19,CC(C)(C)c1cc(CCc2ccccc2NC(=O)NCc2ccccc2)cc(C(C)(C)C)c1O,181 to 183
20,O=C(O)c1ccc(CNC(=O)[C@@H]2Cc3ccccc3N2S(=O)(=O)c2ccc(I)cc2)cc1,110 to 120
21,CCCCOC(=O)COc1ccc(C(=O)Nc2ccccc2Sc2ccc(Cl)cc2-c2nnn[nH]2)cc1,156 to 157
22,CCOC(=O)C(NC(C)=O)C(=O)c1ccccc1 (stereo not given),63 to 64
23,O=[N+]([O-])c1cnn(-c2c(Cl)cc(C(F)(F)F)cc2Cl)n1,105
24,CC(C)[C@H](NC(=O)N(C)Cc1csc(N)n1)C(=O)N[C@@H](Cc1ccccc1)[C@H](O)[C@H](O)[C@H](Cc1ccccc1)NC(=O)OC(C)(C)C,103 to 107

row,Compound,melting point [°C]
1,O=C(c1c[nH]c2ccc(Br)cc12)[C@H]1CCCN1C(=O)OCc1ccccc1,95 to 96
2,CCOC(=O)CCc1c(OCCCCCCc2ccc(OC)cc2)ccc2c(=O)c3cc(C(=O)OC)ccc3oc12,108 to 109
3,Cc1cc(-c2nnc(C(C)(C)C)o2)ccc1[N+](=O)[O-],123 to 125
4,Cc1[nH]c2ccc(/C=C/C(=O)OCc3ccccc3)cc2c1CN(C)C,174 to 177
5,CCn1c2c(nc(-c3ccc(Cl)cc3)c1=O)CCCC2,110 to 113
6,O=C(O)C1CCc2c(c3ccccc3n2C(=O)c2ccc(Cl)cc2)C1 (stereo not given),210 to 211
7,COC(=O)C(c1ccc(Cl)cc1)C(OC)OC (stereo not given),61 to 62
8,CCOC(=O)c1c(-c2ccccc2Cl)c2cc(Cl)ccc2[nH]c1=O,223 to 224
9,CCS(=O)(=O)Nc1cc(-n2nc3ccc(Cl)cn3c2=O)c(F)cc1Cl,120 to 122
10,CC(=O)OCC1OC(n2cc(C)c(-n3cncn3)nc2=O)CC1N=[N+]=[N-] (stereo not given),143 to 145
11,Nc1c([N+](=O)[O-])sc2ccc(C(F)(F)F)cc12,198 to 201
12,O=C(O)Cc1cccc(OCc2cn(-c3ccc(C(F)(F)F)cn3)nc2C2CCCCC2)c1,129 to 130
13,O=CC(CC(=O)O)NC(=O)C1CCCN2C(=O)CCC(NC(=O)c3ccccc3)C(=O)N12 (stereo not given),143 to 147
14,CCOC(=O)c1cc(-n2c(=O)cc(C)n(C)c2=O)ccc1Cl,120 to 122
15,CCCSc1ncc(C(=O)N[C@@H](C)C(=O)O)n1Cc1ccccc1Cl,173 to 176
16,O=C(NN=CC=Cc1ccc([N+](=O)[O-])o1)c1cn2ccsc2n1,332
17,C[C@@H](NC(=O)c1c[nH]c2ncc(-c3nn(C)c4cc(F)cc(F)c34)nc12)C(=O)N1CC(C#N)C1,235 to 265
18,COc1ccc(COc2cc(Sc3c(Cl)cc(C=O)cc3Cl)ccc2OC)cn1,102 to 104
19,CC12CC(=O)C3C(CCC4CC(O)CCC43C)C1CCC2C(=O)COc1ccc([N+](=O)[O-])cc1 (stereo not given),186 to 187
20,COC(=O)[C@@H]1[C@@H](O)CCN1C(=O)Nc1ccc(C#N)c(Cl)c1C,189 to 191
21,COc1cc(OC)c(-c2cccs2)cc1/C=C/C(=O)c1ccc(S(=O)(=O)Nc2ccc(F)cn2)cc1,194 to 195
22,O=C(Nc1ccc2ccc(-c3cccc(Br)c3)nc2n1)c1cccc(Br)c1,144 to 146
23,Cc1ccc(C(=O)N2CCc3nnc(NN)cc3C2)cc1,207 to 210
24,CN(C)c1ccc(/C=C/c2ccc(F)cc2)cc1,197 to 198

row,Compound,melting point [°C]
1,Cc1ccc([N+](=O)[O-])c(C)c1[N+](=O)[O-],81 to 83
2,Cc1ccc(-c2ncc(NC(=O)OCc3ccccc3)c(=O)n2CC(=O)NC(Cc2ccccc2)C(=O)C(F)(F)F)cc1 (stereo not given),173 to 175
3,CSC(=Cc1cnn(-c2c(Cl)cc(C(F)(F)F)cc2Cl)n1)S(C)=O (stereo not given),122 to 123
4,COc1cc2c(C)c(-c3ccccc3)sc2c(Cl)c1Cl,138
5,O=C(N[C@@H](Cc1ccccc1)C(=O)NC(O)C(=O)O)OCc1ccccc1 (stereo not given in full),117 to 127
6,Cc1cc2cc(CN3CCOCC3)cnc2cc1NC(=O)c1ccc(-c2ccc(F)cc2)cc1,153 to 158
7,CS(=O)(=O)CC(=O)c1ccc(NS(C)(=O)=O)c(Oc2ccc(F)cc2F)c1,162 to 163
8,Cc1c(-c2ccccc2)oc2c(SCCCCl)cccc2c1=O,84 to 86
9,CC(C)(C)C(O)(Cn1cncn1)C1CC1c1ccc(Cl)cc1Cl (stereo not given),98 to 101
10,CC(C)(N)Cn1c(CO)nc2c(N)nc3ccccc3c21,248 to 250
11,Cc1cc(C)c(-n2ccc3c(=O)[nH][nH]c(=O)c32)c(C)c1,> 300
12,Cc1ccc2occ(CC3=NOS(=O)N3)c2c1 (stereo not given),152 to 153
13,CC(=O)Nc1ccc(F)cc1OCCOc1ccc(N)cc1F,134 to 136
14,O=C(NCCO)C1CCNCC1,107 to 108
15,O=P(c1ccccc1)(c1ccccc1)c1ccc(F)cc1F,111 to 112
16,OCc1ccccc1-c1nc(-c2ccc(Cl)cc2)n[nH]1,252 to 254
17,O=S1(=O)NC(c2ccccc2)Nc2ccccc21 (stereo not given),126 to 128
18,Cc1ccnc(N2CCN(CCc3c(C)n4c5c(cc(O)cc35)CCC4)CC2)c1,110
19,Fc1cc(F)c(CN2CCNc3ncc(I)cc32)cc1F,154 to 156
20,C#CCOc1ccc(/C=C/C(=O)Nc2ccccc2C(=O)O)cc1OC,191 to 193
21,Fc1cc(F)c(-c2c(F)nc3ncncc3c2F)c(F)c1,248
22,COc1cc(Nc2c(C#N)cnc3cc4ccccc4cc23)c(C)cc1Cl,195 to 197
